Measurements as given in US5726162A (priority 1996, dated 1998).
Read-outs that look alike come from different tables or passages of the source.

Assays:
fungal mycelium = experiment: organism not typed; assay type: cell-based; conditions: read-out: % growth inhibition
[1] = system: Magnaporthe grisea (Pyricularia oryzae); experiment: whole plant or invertebrate; assay type: in vivo, Magnaporthe grisea (Pyricularia oryzae) on M201 rice plants; conditions: for pest or weed control at 200 ppm: Pyricularia oryzae, 144 h, read-out: % Control RB
Candida albicans = experiment: Activity against Candida albicans in microtiter plates, % control of growth; assay type: cell-based
Description: The activity against Candida albicans was determined using the following test protocol.
Conidia and mycelium from the Candida albicans culture maintained on potato dextrose agar plates were lightly scraped off into yeast extract-dextrose broth (YDB) so that mostly conidia was used as inoculum. The conidial suspsension was strained through a double layer of cheesecloth to remove mycelial clumps. The inoculum mixture was placed in microtiter plates using a 12-tipped pipet. 175 microliters were placed in each well of the microliter plates and the plates were placed in the refrigerator overnight. There were two replications.
The compounds to be tested were dissolved in 1:1 acetone:methanol and 100 ppm of the compound solution were placed in a well of the prepared microtiter plates.
The microtiter plates were incubated for 7 days at room temperature after addition of the compounds. Percent control was visually estimated using a microtiter plate reading mirror. Readings were made at 1, 2, 3, and/or 7 days after treatment.

fungal inoculum = experiment: organism not typed; assay type: cell-based
[2] = 24 h, 1 day after treatment, read-out: % control of growth +1
[3] = 48 h, 2 days after treatment, read-out: % control of growth +2
[4] = 72 h, 3 days after treatment, read-out: % control of growth +3

## CCC#CCN1N=C(c2ccc(Cl)cc2)CCC1=S [Compound 153, 6-(4-chlorophenyl)-2-(2'-pentynyl)-4,5-dihydropyridazinthione]
Fungal mycelium
  inhibition at 10 ppm: 90.9%
[1]
  pest or weed control at 200 ppm: 0%
Candida albicans; [2]
  inhibition of growth at 100 ppm: 100%
Candida albicans; [3]
  inhibition of growth at 100 ppm: 100%
Candida albicans; [4]
  inhibition of growth at 100 ppm: 100%

## CC(F)C#CCn1nc(-c2ccc(Cl)cc2)ccc1=O (centres unmarked) [Compound 130]
Fungal mycelium
  inhibition at 1 ppm: 100%
Candida albicans; [2]
  inhibition of growth at 100 ppm: 100%
Candida albicans; [3]
  inhibition of growth at 100 ppm: 100%
Candida albicans; [4]
  inhibition of growth at 100 ppm: 100%

## O=c1ccc(-c2ccc(Cl)cc2)nn1CC#CCCF [Compound 131]
Fungal mycelium
  inhibition at 1 ppm: 100%
Candida albicans; [2]
  inhibition of growth at 100 ppm: 100%
Candida albicans; [3]
  inhibition of growth at 100 ppm: 100%
Candida albicans; [4]
  inhibition of growth at 100 ppm: 100%

## O=C1CCC(c2ccc(Cl)cc2)=NN1c1ccccc1 [Compound 14]
Fungal inoculum; read-out: % growth inhibition
  inhibition at 50 ppm: 100%
[1]
  pest or weed control at 200 ppm: 0%

## CC#CCN1N=C(c2ccc3ccc4cccc5ccc2c3c45)CCC1=O [Compound 141]
Fungal inoculum; read-out: % growth inhibition
  inhibition at 100 ppm: 23.9%
[1]
  pest or weed control at 200 ppm: 0%

## CC#CCN1N=C(c2ccc(Cl)c(Cl)c2)CCC1=O [Compound 23]
Fungal inoculum; read-out: % growth inhibition
  inhibition at 5 ppm: 100%
[1]
  pest or weed control at 200 ppm: 50%

## CC(C)C#CC=CCN1N=C(c2ccc(Cl)cc2)CCC1=O [Compound 70]
Fungal inoculum; read-out: % growth inhibition
  inhibition at 5 ppm: 100%
[1]
  pest or weed control at 200 ppm: 0%

## CC(C)(C)C#CCN1N=C(c2ccc(Cl)cc2)CCC1=O [Compound 46]
Fungal inoculum; read-out: % growth inhibition
  inhibition at 100 ppm: 100%
[1]
  pest or weed control at 200 ppm: 0%

## CC#CCN1N=C(c2cccs2)CCC1=O [Compound 140]
Fungal inoculum; read-out: % growth inhibition
  inhibition at 100 ppm: 37.8%
[1]
  pest or weed control at 200 ppm: 75%

## CC#CCN1N=C(c2cccc3ccccc23)CCC1=O [Compound 134, 6-(1-naphthyl)-2-(2'-pentynyl)-4,5-dihydropyridazinone]
Fungal inoculum; read-out: % growth inhibition
  inhibition at 50 ppm: 66.5%
[1]
  pest or weed control at 200 ppm: 0%

## CCC#CCn1nc(-c2sc3ccccc3c2Br)ccc1=O [Compound 148]
Fungal inoculum; read-out: % growth inhibition
  inhibition at 10 ppm: 0%
[1]
  pest or weed control at 200 ppm: 0%

## CCC#CCN1N=C(c2ccc3ccccc3n2)CCC1=O [Compound 229, 6-(2-quinoline)-2-(2'-pentynyl)-4,5-dihydropyridazinone]
Fungal mycelium
  inhibition at 5 ppm: 100%
Candida albicans; [2]
  inhibition of growth at 100 ppm: 100%
Candida albicans; [3]
  inhibition of growth at 100 ppm: 100%
Candida albicans; [4]
  inhibition of growth at 100 ppm: 100%

## CCC[CH2][Sn]([C]#CCN1N=C(c2ccc(Cl)cc2)CCC1=O)([CH2]CCC)[CH2]CCC [Compound 124, 6-(4-chlorophenyl)-2-(3'-tri-n-butyltin-2'-propynyl)-4,5-dihydropyridazinon]
Fungal inoculum
  % growth inhibition: 100.0%
[1]; 200 ppm, protectant
  % Control RB: 0%

## COC(C)C#CCN1N=C(c2ccc(Cl)cc2)CCC1=O (centres unmarked) [Compound 48, 6-(4-chlorophenyl)-2-(4'methoxy-2'-pentynyl)-4,5-dihydropyridazinone]
Fungal inoculum; read-out: % growth inhibition
  inhibition at 50 ppm: 100%
[1]
  pest or weed control at 200 ppm: 90%

## CCC#CCn1nc(-c2ccc(CC)cc2)ccc1=O [Compound 110]
Fungal inoculum; read-out: % growth inhibition
  inhibition at 10 ppm: 100%
[1]
  pest or weed control at 200 ppm: 0%

## CC#CCN1N=C(c2ccc(Oc3ccccc3)cc2)CCC1=O [Compound 33]
Fungal inoculum; read-out: % growth inhibition
  inhibition at 100 ppm: 27.6%
[1]
  pest or weed control at 200 ppm: 0%

## CCC#CCN1N=C(c2ccc(C(F)(F)F)cc2)CCC1=O [Compound 41]
Fungal inoculum; read-out: % growth inhibition
  inhibition at 10 ppm: 89.2%
[1]
  pest or weed control at 200 ppm: 0%

## CC#CCN1N=C(c2cc(Cl)cc(Cl)c2)CCC1=O [Compound 38]
Fungal inoculum; read-out: % growth inhibition
  inhibition at 100 ppm: 75.2%
[1]
  pest or weed control at 200 ppm: 75%

## C=C(C)C#CCN1N=C(c2ccc(Cl)cc2)CCC1=O [Compound 45]
Fungal inoculum; read-out: % growth inhibition
  inhibition at 10 ppm: 100%
[1]
  pest or weed control at 200 ppm: 0%

## CCC#CCN1N=C(c2cc(Cl)c(C)c(Cl)c2Cl)CCC1=O [Compound 43]
Fungal inoculum; read-out: % growth inhibition
  inhibition at 10 ppm: 22.3%
[1]
  pest or weed control at 200 ppm: 0%

## CCC#CCC1(CC#CCC)c2cc(Cl)ccc2-c2n[nH]c(=O)cc21 [Compound 151, 5,5'-[bis(pent-2-yn-1-yl)]-7-chloro-2,5-dihydroindeno-[1,2-c]-(2H)-pyridazin-3-one]
Fungal inoculum; read-out: % growth inhibition
  inhibition at 100 ppm: 80.6%
[1]
  pest or weed control at 200 ppm: 0%

## CCC#CCN1N=C(c2ccc(C(C)(C)C)cc2)CCC1=O [Compound 57]
Fungal inoculum; read-out: % growth inhibition
  inhibition at 100 ppm: 95.7%
[1]
  pest or weed control at 200 ppm: 0%

## CCC#CCn1nc(-c2ccc(Br)c(F)c2)ccc1=O [Compound 127]
Fungal mycelium
  inhibition at 1 ppm: 100%
[1]
  pest or weed control at 200 ppm: 0%
Candida albicans; [2]
  inhibition of growth at 100 ppm: 100%
Candida albicans; [3]
  inhibition of growth at 100 ppm: 100%
Candida albicans; [4]
  inhibition of growth at 100 ppm: 100%

## CCC#CCn1nc(-c2ccc(OCC)cc2)ccc1=O [Compound 117]
Fungal inoculum; read-out: % growth inhibition
  inhibition at 200 ppm: 34.7%
[1]
  pest or weed control at 200 ppm: 0%

## CCC#CCn1nc(-c2ccc(Cl)c(F)c2)ccc1=O [Compound 120]
Fungal mycelium
  inhibition at 1 ppm: 100%
[1]
  pest or weed control at 200 ppm: 99%
Candida albicans; [2]
  inhibition of growth at 100 ppm: 100%
Candida albicans; [3]
  inhibition of growth at 100 ppm: 100%
Candida albicans; [4]
  inhibition of growth at 100 ppm: 100%
